Measurements: PubChem BioAssay AID216 (DTP/NCI, 2004)
Values joined by “and” are separate entries in the source; they are usually repeats but may differ in a detail not shown here. Equal entries are not always repeated. Inconclusive results and toxic doses are left out.

Test system: BDF1 mice, P288 leukemia ip, survival T/C
Assay: NCI In Vivo Anticancer Drug Screen. Data for tumor model P288 Lymphocytic Leukemia (intraperitoneal) in B6D2F1 (BDF1) mice
Conditions: higher = longer survival
Description: The antitumor activity of compounds was measured in mice bearing transplantable tumors. Survival or tumor size were measured and the results are expressed as the measurement made in the treated group (T) divided by the measurement made in the vehicle treated control group (C). The tumor model used in this assay is P288 Lymphocytic Leukemia (intraperitoneal) in B6D2F1 (BDF1) mice

[1] = endpoint: survival time, mean or median, dose: 62.5 mg/kg/injection, schedule: Q01DX Z (sc), vehicle: steriod suspending solution
[2] = endpoint: survival time, mean or median, dose: 125.0 mg/kg/injection, schedule: Q01DX Z (sc), vehicle: steriod suspending solution
[3] = endpoint: survival time, mean or median, dose: 6.25 mg/kg/injection, schedule: Q01DX Z (ip), vehicle: carboxymethylcellulose (CMC)
[4] = endpoint: survival time, mean or median, dose: 12.5 mg/kg/injection, schedule: Q01DX Z (ip), vehicle: carboxymethylcellulose (CMC)
[5] = endpoint: survival time, mean or median, dose: 25.0 mg/kg/injection, schedule: Q01DX Z (ip), vehicle: carboxymethylcellulose (CMC)
[6] = endpoint: survival time, mean or median, dose: 25.0 mg/kg/injection, schedule: Q01DX Z (sc), vehicle: steriod suspending solution
[7] = endpoint: survival time, mean or median, dose: 50.0 mg/kg/injection, schedule: Q01DX Z (sc), vehicle: steriod suspending solution
[8] = endpoint: survival time, mean or median, dose: 100.0 mg/kg/injection, schedule: Q01DX Z (sc), vehicle: steriod suspending solution
[9] = endpoint: survival time, mean or median, dose: 200.0 mg/kg/injection, schedule: Q01DX Z (sc), vehicle: steriod suspending solution
[10] = endpoint: survival time, mean or median, dose: 400.0 mg/kg/injection, schedule: Q01DX Z (sc), vehicle: steriod suspending solution
[11] = endpoint: survival time, mean or median, dose: 50.0 mg/kg/injection, schedule: Q01DX010 (ip), vehicle: saline
[12] = endpoint: survival time, mean or median, dose: 100.0 mg/kg/injection, schedule: Q01DX010 (ip), vehicle: saline
[13] = endpoint: survival time, mean or median, dose: 200.0 mg/kg/injection, schedule: Q01DX010 (ip), vehicle: saline
[14] = endpoint: survival time, mean or median, dose: 400.0 mg/kg/injection, schedule: Q01DX010 (ip), vehicle: saline
[15] = endpoint: survival time, mean or median, dose: 25.0 mg/kg/injection, schedule: Q01DX010 (ip), vehicle: saline
[16] = endpoint: survival time, mean or median, dose: 12.0 mg/kg/injection, schedule: Q01DX010 (ip), vehicle: saline

C[C@]12CCC(=O)C[C@H]1CC[C@@H]1[C@@H]2CC[C@@]2(C)[C@H]1CC[C@]2(C)O
T/C [1]: 97 % of control | T/C [2]: 98 % of control | T/C (endpoint: survival time, mean or median, dose: 250.0 mg/kg/injection, schedule: Q01DX Z (sc), vehicle: steriod suspending solution): 109 % of control and 92 % of control | T/C (endpoint: survival time, mean or median, dose: 500.0 mg/kg/injection, schedule: Q01DX Z (sc), vehicle: steriod suspending solution): 104 % of control and 100 % of control | T/C (endpoint: survival time, mean or median, dose: 1000.0 mg/kg/injection, schedule: Q01DX Z (sc), vehicle: steriod suspending solution): 101 % of control

CN(N=O)C(=O)NC(C=O)C(O)C(O)C(O)CO (configuration not stated)
T/C (endpoint: survival time, mean or median, dose: 50.0 mg/kg/injection, schedule: Q01DX Z (ip), vehicle: saline): 111 % of control | T/C (endpoint: survival time, mean or median, dose: 100.0 mg/kg/injection, schedule: Q01DX Z (ip), vehicle: saline): 122 % of control

CN1c2c(nc(N)[nH]c2=O)NCC1CCNc1ccc(C(=O)NC(CCC(=O)O)C(=O)O)cc1 (configuration not stated)
T/C (endpoint: median survival time, dose: 6.25 mg/kg/injection, schedule: Q01DX009 (ip), vehicle: other): 104 % of control | T/C (endpoint: median survival time, dose: 12.5 mg/kg/injection, schedule: Q01DX009 (ip), vehicle: other): 104 % of control | T/C (endpoint: median survival time, dose: 25.0 mg/kg/injection, schedule: Q01DX009 (ip), vehicle: other): 108 % of control | T/C (endpoint: median survival time, dose: 50.0 mg/kg/injection, schedule: Q01DX009 (ip), vehicle: other): 116 % of control | T/C (endpoint: median survival time, dose: 400.0 mg/kg/injection, schedule: Q01DX009 (ip), vehicle: other): 162 % of control | T/C (endpoint: median survival time, dose: 800.0 mg/kg/injection, schedule: Q01DX009 (ip), vehicle: other): 100 % of control

C[n+]1c2ccccc2nc2c(N)cc(N)cc21
T/C (endpoint: survival time, mean or median, dose: 3.1 mg/kg/injection, schedule: Q01DX Z (ip), vehicle: carboxymethylcellulose (CMC)): 114 % of control | T/C [3]: 97 % of control | T/C (endpoint: survival time, mean or median, dose: 6.3 mg/kg/injection, schedule: Q01DX Z (ip), vehicle: carboxymethylcellulose (CMC)): 115 % of control | T/C [4]: 104 % of control and 105 % of control | T/C [5]: 117 % of control and 96 % of control

Clc1ccc(C(c2ccccc2Cl)C(Cl)Cl)cc1 (configuration not stated)
T/C [6]: 100 % of control | T/C [7]: 122 % of control | T/C [8]: 107 % of control | T/C [9]: 86 % of control and 100 % of control | T/C [10]: 101 % of control

OC(CBr)C(O)C(O)C(O)CBr (configuration not stated)
T/C [11]: 114 % of control and 94 % of control | T/C [12]: 114 % of control and 94 % of control | T/C [13]: 114 % of control and 94 % of control | T/C [14]: 105 % of control and 114 % of control

C[C@]12C=CC(=O)C=C1CC[C@@H]1[C@@H]2C(=O)C[C@@]2(C)[C@H]1CC[C@]2(O)C(=O)CO
T/C (endpoint: survival time, mean or median, dose: 12.5 mg/kg/injection, schedule: Q01DX010 (sc), vehicle: steriod suspending solution): 105 % of control | T/C (endpoint: survival time, mean or median, dose: 25.0 mg/kg/injection, schedule: Q01DX010 (sc), vehicle: steriod suspending solution): 103 % of control | T/C (endpoint: survival time, mean or median, dose: 50.0 mg/kg/injection, schedule: Q01DX010 (sc), vehicle: steriod suspending solution): 111 % of control and 87 % of control | T/C [7]: 102 % of control and 100 % of control | T/C (endpoint: survival time, mean or median, dose: 100.0 mg/kg/injection, schedule: Q01DX010 (sc), vehicle: steriod suspending solution): 100 % of control | T/C [8]: 102 % of control and 111 % of control | T/C (endpoint: survival time, mean or median, dose: 200.0 mg/kg/injection, schedule: Q01DX010 (sc), vehicle: steriod suspending solution): 97 % of control | T/C [9]: 90 % of control and 100 % of control | T/C [10]: 94 % of control

Nc1c(I)cc(I)cc1C(=O)O
T/C [15]: 100 % of control | T/C [11]: 112 % of control and 100 % of control | T/C [12]: 112 % of control and 100 % of control | T/C [13]: 100 % of control | T/C [14]: 106 % of control

O=c1[nH]cc(F)c(=O)[nH]1
T/C (endpoint: survival time, mean or median, dose: 5.0 mg/kg/injection, schedule: Q01DX010 (ip), vehicle: saline): 115 % of control and 118 % of control and 100 % of control | T/C (endpoint: survival time, mean or median, dose: 10.0 mg/kg/injection, schedule: Q01DX010 (ip), vehicle: saline): 122 % of control | T/C (endpoint: survival time, mean or median, dose: 20.0 mg/kg/injection, schedule: Q01DX010 (ip), vehicle: saline): 155 % of control and 190 % of control and 193 % of control

CC(=O)[C@H]1CC[C@H]2[C@@H]3C[C@H](C)C4=CC(=O)CC[C@]4(C)[C@H]3C(=O)C[C@]12C
T/C [6]: 100 % of control | T/C [7]: 108 % of control | T/C [8]: 114 % of control | T/C [9]: 104 % of control and 105 % of control | T/C [10]: 110 % of control | T/C (endpoint: survival time, mean or median, dose: 800.0 mg/kg/injection, schedule: Q01DX Z (sc), vehicle: steriod suspending solution): 100 % of control

CN(C)c1ccc(/C=C\c2ccnc3ccccc23)cc1
T/C (endpoint: survival time, mean or median, dose: 6.25 mg/kg/injection, schedule: Q01DX Z (ip), vehicle: water): 98 % of control | T/C [16]: 88 % of control | T/C (endpoint: survival time, mean or median, dose: 12.5 mg/kg/injection, schedule: Q01DX Z (ip), vehicle: water): 98 % of control | T/C (endpoint: survival time, mean or median, dose: 18.0 mg/kg/injection, schedule: Q01DX010 (ip), vehicle: saline): 88 % of control | T/C (endpoint: survival time, mean or median, dose: 25.0 mg/kg/injection, schedule: Q01DX Z (ip), vehicle: water): 100 % of control | T/C (endpoint: survival time, mean or median, dose: 27.0 mg/kg/injection, schedule: Q01DX010 (ip), vehicle: saline): 94 % of control | T/C (endpoint: survival time, mean or median, dose: 40.0 mg/kg/injection, schedule: Q01DX010 (ip), vehicle: saline): 88 % of control | T/C (endpoint: survival time, mean or median, dose: 50.0 mg/kg/injection, schedule: Q01DX Z (ip), vehicle: water): 105 % of control | T/C (endpoint: survival time, mean or median, dose: 100.0 mg/kg/injection, schedule: Q01DX Z (ip), vehicle: water): 108 % of control | T/C (endpoint: survival time, mean or median, dose: 200.0 mg/kg/injection, schedule: Q01DX Z (ip), vehicle: water): 90 % of control

O=[n+]1c2c(n([O-])c3ccccc31)-c1cccc3cccc-2c13
T/C [15]: 88 % of control | T/C [11]: 94 % of control and 100 % of control | T/C [12]: 100 % of control | T/C [13]: 88 % of control and 100 % of control

Nc1ncnc2[nH]ncc12
T/C (endpoint: survival time, mean or median, dose: 1.5 mg/kg/injection, schedule: Q01DX010 (ip), vehicle: saline): 93 % of control and 100 % of control | T/C (endpoint: survival time, mean or median, dose: 3.0 mg/kg/injection, schedule: Q01DX010 (ip), vehicle: saline): 107 % of control and 100 % of control | T/C (endpoint: survival time, mean or median, dose: 6.0 mg/kg/injection, schedule: Q01DX010 (ip), vehicle: saline): 100 % of control | T/C [3]: 92 % of control | T/C [16]: 112 % of control | T/C [4]: 94 % of control | T/C [5]: 94 % of control

CC[C@H](c1ccc(O)cc1)[C@@H](CC)c1ccc(O)cc1
T/C (endpoint: survival time, mean or median, dose: 8.0 mg/kg/injection, schedule: Q01DX Z (sc), vehicle: steriod suspending solution): 90 % of control | T/C (endpoint: survival time, mean or median, dose: 16.0 mg/kg/injection, schedule: Q01DX Z (sc), vehicle: steriod suspending solution): 93 % of control | T/C (endpoint: survival time, mean or median, dose: 31.0 mg/kg/injection, schedule: Q01DX Z (sc), vehicle: steriod suspending solution): 97 % of control | T/C [1]: 88 % of control and 98 % of control | T/C [2]: 90 % of control

O=c1[nH]c(=O)n(C2CC(O)C(CO)O2)cc1Br (configuration not stated)
T/C (endpoint: survival time, mean or median, dose: 6.5 mg/kg/injection, schedule: Q01DX Z (ip), vehicle: carboxymethylcellulose (CMC)): 96 % of control | T/C (endpoint: survival time, mean or median, dose: 8.0 mg/kg/injection, schedule: Q01DX Z (ip), vehicle: carboxymethylcellulose (CMC)): 95 % of control | T/C (endpoint: survival time, mean or median, dose: 13.0 mg/kg/injection, schedule: Q01DX Z (ip), vehicle: carboxymethylcellulose (CMC)): 107 % of control | T/C (endpoint: survival time, mean or median, dose: 26.0 mg/kg/injection, schedule: Q01DX Z (ip), vehicle: carboxymethylcellulose (CMC)): 102 % of control | T/C (endpoint: survival time, mean or median, dose: 31.0 mg/kg/injection, schedule: Q01DX Z (ip), vehicle: carboxymethylcellulose (CMC)): 90 % of control

CCn1cnc2c(=S)nc[nH]c21
T/C (endpoint: survival time, mean or median, dose: 15.6 mg/kg/injection, schedule: Q01DX Z (ip), vehicle: carboxymethylcellulose (CMC)): 92 % of control | T/C (endpoint: survival time, mean or median, dose: 31.25 mg/kg/injection, schedule: Q01DX Z (ip), vehicle: carboxymethylcellulose (CMC)): 92 % of control | T/C (endpoint: survival time, mean or median, dose: 62.5 mg/kg/injection, schedule: Q01DX010 (ip), vehicle: saline): 90 % of control | T/C (endpoint: survival time, mean or median, dose: 62.5 mg/kg/injection, schedule: Q01DX Z (ip), vehicle: carboxymethylcellulose (CMC)): 93 % of control | T/C (endpoint: survival time, mean or median, dose: 125.0 mg/kg/injection, schedule: Q01DX010 (ip), vehicle: saline): 90 % of control

COc1cc2c(c(OC)c1OC)-c1ccc(OC)c(=O)cc1[C@@H](NC(C)=O)CC2
T/C (endpoint: survival time, mean or median, dose: 0.12 mg/kg/injection, schedule: Q01DX Z (ip), vehicle: saline): 109 % of control
